According to paper PMC4992440 (ACS chemical biology, 2016):
Like-named read-outs stand apart in the source and are kept apart here.

Columns and labels:
[1] = Mouse liver microsome stability; conditions: mouse liver microsomes; 1 independent experiment
[2] = system: IL-10 production in Zymosan A-stimulated BMDCs; experiment: IL-10 production by Zymosan A-stimulated BMDCs; type: cell-based, mouse; conditions: read-out: IL-10 EC50, mean ± SD from ≥ 2 independent experiments
[3] = Serum / plasma protein binding; type: in vitro ADME, mouse
[4] = system: p-HDAC5 (Ser259) in BMDMs; experiment: HDAC5 Ser259 phosphorylation in LPS-stimulated BMDMs; type: cell-based, mouse; conditions: 1 μM, 6 hr pre-incubation, LPS 30 min
[5] = system: BMDCs; experiment: Cellular cytotoxicity in Zymosan A-stimulated BMDCs; type: cell-based, mouse
[6] = PBS solubility; type: physicochemical
[7] = system: LPS-stimulated C57BL/6 mice; type: in vivo; conditions: mouse
[8] = system: Il10 and Nurr77 transcripts in BMDCs; experiment: CREB target gene transcripts in LPS-stimulated BMDCs; type: cell-based, mouse; conditions: 1 μM, 24 hr pre-treatment
[9] = system: C57BL/6 mice; experiment: Daily dosing for 1 week in mice: weight, serum triglycerides, adiponectin; type: in vivo, mouse; conditions: wild-type mice, daily for 1 week
[10] = mouse, microsomes
[11] = Pharmacokinetics after IP administration in mice; type: in vivo; conditions: mouse
[12] = system: TNFα, IL-6, IL-12p40, IL-1β in BMDCs; experiment: Inflammatory cytokine production by Zymosan A-stimulated BMDCs; type: cell-based, mouse; conditions: 1 μM 24 hr, Zymosan A 18 hr

## COc1ccc(N(C(=O)Nc2c(C)cccc2C)c2cc(Nc3ccc(N4CCN(C)CC4)cc3)ncn2)c(OC)c1 [Compound 1, reference compound]
[1]
  MLM t1/2: 0.183 h
[2]
  EC50: 220 ± 90 nM
[3]
  serum bound: > 99%
[4]
  LPS stimulated phosphorylation of HDAC5 at Ser259: reduces

## COc1ccc(N2C(=O)N(c3c(C)cccc3Cl)Cc3cnc(Nc4ccc(C5CCN(C)CC5)cc4OC)nc32)nc1 [Compound 5]
[5]
  concentrations at which non-toxic: ≤ 10 µM
[6]
  PBS solubility: 428 ± 11 µM
[2]
  EC50: 460 ± 110 nM
[7]; IP 20 mg/Kg
  LPS-induced increase in Il6 mRNA in colon: not affected
[7]; IP 20 mg/Kg, LPS
  serum IL-6 levels: moderately decreased
[7]; IP 20 mg/Kg, LPS 1 hour
  increase of serum IL-10 levels: > 2 fold
[7]; IP 20 mg/Kg, throughout the experiment
  Tnf transcript in colon: reduced
[7]; IP 5 – 50 mg/Kg, 15 min before LPS 1 hour
  phosphorylation of HDAC5 at Ser259 in total splenic leukocytes: dose dependently decreased
[7]; IP, beginning at 5 mg/Kg, LPS 1 hour
  abundance of TNFα in serum: dose-dependently reduced
[7]; IP, beginning at the 20 mg/Kg dose
  phosphorylation of HDAC5 at Ser259 in total splenic leukocytes, immunoblotting: below the limit of detection
[8]
  Il10 transcript level: increased
  Nurr77 transcript level: increased
[9]
  tolerability of daily injections: well tolerated
[10]
  MLM t1/2: >2 h
[11]; IP 20 mg/Kg, 24 hour treatment period
  changes in viability, activity or grooming: no obvious changes
[11]; IP, 20 mg/Kg, serum
  clearance t1/2: > 7 h
[12]
  IL-1β release: only modestly enhanced
  IL-6 production: suppressed
  IL-12p40 production: suppressed
  TNFα production: suppressed
[4]
  LPS stimulated phosphorylation of HDAC5 at Ser259: reduced

## COc1ccc(N2C(=O)N(c3c(C)cccc3Cl)Cc3cnc(Nc4ccc(N5CCN(C)CC5)cc4)nc32)nc1 [Compound 3]
[5]
  toxicity in BMDCs (in words): significantly elevated toxicity
[1]
  MLM t1/2: 0.45 h
[2]
  EC50: 11 ± 1 nM
